Values after ≈ are worked out from the molar mass of the structure shown. “Also recorded” adds a separate entry of the source.
How the values were obtained:
P. aeruginosa PA14 [1] = experiment: Minimum inhibitory concentration (MIC) assay; format: cell-based, Pseudomonas aeruginosa
Experimental: Minimum inhibitory concentration (MIC) assay. To determine the MICs of cisplatin for E. coli K-12, enterohemorrhagic E. coli (EHEC), S. aureus, and P. aeruginosa (PAO1 and PA14), freshly inoculated cultures (at least two independent cultures) in buffered LB (TSB for S. aureus) were incubated for 16 h with varying concentrations of cisplatin, and growth inhibition was assayed by the lack of turbidity.

[2] = system: E. coli K-12 ΔuvrA, ΔuvrB, and ΔuvrC mutants; experiment: Planktonic killing of uvr deletion mutants; format: cell-based, Escherichia coli; details: mid-stationary phase, buffered LB
Experimental: In order to obtain exponential and mid-stationary phase cultures in LB, buffered LB or TSB, overnight cultures (16 h) were diluted 1:1000 in fresh medium and grown to the desired turbidity (i.e., a turbidity below 2 at 600 nm for exponential phase and a turbidity of 3 to 4 at 600 nm for mid-stationary phase). Late-stationary phase cultures in LB or buffered LB were obtained by growing overnight cultures (16 h). In order to obtain exponential and late-stationary phase cultures in M9-glucose, overnight cultures (16 h) were washed diluted 1:1000 in M9-glucose and grown for the desired period of time (i.e., a turbidity of 0.4 at 600 nm for exponential phase and 24 h of growth for late-stationary phase). Anaerobically grown cultures were maintained with ˜20% CO2, ˜79% N2, and ˜1% H2. In order to obtain rifampicin-induced persister cultures in buffered LB, overnight cultures (16 h) were diluted 1:1000 in fresh medium and grown to a turbidity of 0.8 at 600 nm. Cultures were exposed to rifampicin (100 μg/mL) for 30 min, centrifuged, and resuspended in fresh medium to remove the rifampicin.

P. aeruginosa PA14 [3] = experiment: Persister cell assay of pathogens (stationary phase), cisplatin vs MMC; format: cell-based, Pseudomonas aeruginosa; details: M9-glucose, 3 h
Experimental: For the persister cell assay of the pathogens, stationary-phase cells were used. Cultures of EHEC, P. aeruginosa, and S. aureus were prepared by a 1:1000 dilution of overnight grown cultures (LB medium for EHEC and P. aeruginosa, TSB for S. aureus) into fresh buffered LB medium for EHEC, M9-glucose for P. aeruginosa, and TSB for S. aureus and re-growing the cells to a turbidity of 3 to 4 at 600 nm for EHEC and S. aureus and growing for 24 h for P. aeruginosa. […]
NaClO4 (0.1M) was used as a solvent control. The viability of the cells was determined before and after cisplatin and MMC treatment. At least two independent cultures of each strain were used in each experiment.

[4] = system: P. aeruginosa PA14 and ΔtpbA biofilm cells; experiment: Persister cell killing assay (biofilm cells); format: cell-based, Pseudomonas aeruginosa; details: 3 h, 5×MIC (cisplatin 250 μg/mL, MMC 10 μg/mL), limit of detection 100 cells/mL
Experimental: Persister cell killing assay (biofilm cells). […] Biofilm formation was assayed using the crystal violet staining method (Fletcher 1977) and was normalized by planktonic cell growth (turbidity at 620 nm) to account for any differences in growth rates. Data were averaged from 6 replicate wells using at least two independent cultures. […] NaClO4 (0.1M) was used as a solvent control for cisplatin. Cell viability in biofilms was assayed before and after the MMC and cisplatin treatments by removing supernatants (planktonic cells) from each well carefully, resuspending the biofilm in normal saline, and sonicating twice at 3W for 10 sec (Ueda and Wood 2009) to break apart the biofilm cells (due to the aggregative nature of P. aeruginosa ΔtpbA cells). Suspensions from multiple wells were combined to get an averaged sample. Then the cell suspensions were serially diluted in normal saline for a drop assay to check cell viability.

pCA24N DNA = experiment: In vitro crosslinking of DNA and denaturing agarose gel electrophoresis; format: biochemical; details: cisplatin 200 μM 1.5 h and 3.5 h; MMC 500 μg/mL; denaturing gel
Experimental: FIG. 10 provides data obtained from analysis of in vitro crosslinking of DNA with cisplatin and denaturing agarose gel electrophoresis. To produce the results shown in FIG. 10, pCA24N DNA (4518 bp) was in vitro crosslinked with cisplatin following a standard protocol. In brief, 2.2 μg of pCA24N DNA was linearized by HindIII digestion and cleaned using Wizard-SV gel and PCR clean-up system (Promega, Madison, Wis., USA). Linearized pCA24N was then treated with 200 μM (60 μg/mL) of cisplatin (Sigma-Aldrich, St. Louis, Mo., USA) for 1.5 h and 3.5 h at 37° C. The same amount of pCA24N DNA was also treated with an equivalent amount of 0.1M NaClO4 (solvent control for cisplatin) for 3.5 h at 37° C. Mitomycin C (MMC) was used as a positive control to compare types of crosslinking between cisplatin and MMC. For MMC, the same amount (2.2 μg) of pCA24N DNA was crosslinked essentially as in Example 1. In brief, linearized pCA24N DNA was treated with 500 μg/mL (1.5 mM) MMC or without MMC in 0.2 mM EDTA, 50 mM NaCl, and 5 mM Tris (pH 7.6) with Na2S2O4 added six times at 10 min intervals to reach a final concentration of 2.25 mM (1.5×molarity of MMC). The crosslinking reaction with MMC was performed anaerobically on ice and the reaction was stopped by exposure to air. […]

S. aureus ATCC29213 = experiment: Persister cell assay of pathogens (stationary phase); format: cell-based, Staphylococcus aureus; details: stationary phase cells, TSB; cisplatin 500 μg/mL, 1.7×MIC, 3 h
Experimental: For the persister cell assay of the pathogens, stationary-phase cells were used. Cultures of EHEC, P. aeruginosa, and S. aureus were prepared by a 1:1000 dilution of overnight grown cultures (LB medium for EHEC and P. aeruginosa, TSB for S. aureus) into fresh buffered LB medium for EHEC, M9-glucose for P. aeruginosa, and TSB for S. aureus and re-growing the cells to a turbidity of 3 to 4 at 600 nm for EHEC and S. aureus and growing for 24 h for P. aeruginosa. Stationary-phase cultures of EHEC (buffered LB medium), P. aeruginosa (M9-glucose medium), and S. aureus (TSB medium) were then treated with cisplatin (500 μg/mL for EHEC and S. aureus, 250 μg/mL for P. aeruginosa) for 3 h (250 mL flask, 250 rpm).

[5] = 1×MIC (cisplatin 50 μg/mL, MMC 2 μg/mL)
[6] = 5×MIC (cisplatin 250 μg/mL, MMC 10 μg/mL)

SMILES | MIC (1×MIC) (P. aeruginosa PA14 [1]) [µg/mL] | time of treatment to eradication (beyond the limit of detection) [2] | survival (P. aeruginosa PA14 [3]; [5]) | survival (P. aeruginosa PA14 [3]; [6]) | cell viability of biofilm cells ([4]; PA14 biofilm) | cell viability of biofilm cells ([4]; ΔtpbA biofilm) | type of DNA crosslinking in vitro (pCA24N DNA) | survival (S. aureus ATCC29213) [%]
CO[C@@]12[C@H](COC(N)=O)C3=C(C(=O)C(C)=C(N)C3=O)N1C[C@@H]1N[C@@H]12 [MMC, mitomycin C] | 2 (≈ 5.98 µM) | less than 30 min | 5±2% | 0.0056±0.0004% | could not eradicate | could not eradicate | crosslinks inter-strand DNA | 
N.N.[Cl][Pt][Cl] [cisplatin, cis-diamminodichloroplatinum(II)] | 50 |  | completely eradicated | eradicated | completely eradicated | completely eradicated | crosslinks the same strand of DNA; also recorded: crosslinks intra-strand DNA | 0.0001±0.0001

Source: patent publication US10238689B2, “Methods for combating bacterial infections by killing persister cells with mitomycin C and/or cisplatin” (THE PENN STATE RESEARCH FOUNDATION, priority 2015, dated 2019)
